The values below come from paper PMC10812672, “Short Antimicrobial Peptide Derived from the Venom Gland Transcriptome of Pamphobeteus verdolaga Increases Gentamicin Susceptibility of Multidrug-Resistant Klebsiella pneumoniae” (Antibiotics, 2023).

The subject of this data set is human peripheral blood mononuclear cells (hPBMCs). As to the kind of experiment: Cytotoxicity, MTT. In kind it is cell-based. As for the experimental part:
The cytotoxicity of PvAMP66 was assessed in vitro against human red blood cells (hRBCs) and human peripheral blood mononuclear cells (hPBMCs) using concentrations of 1.56–200 µM. At the highest concentration, PvAMP66 induced 60% hemolysis in human erythrocytes (Figure 3a), and a decrease in viability of approximately 40% in the hPBMCs (Figure 3b). […] Ratios between CC50 or HC50, and the IC50 values registered for the bacterial strains, indicate that PvAMP66 has higher selectivity for interacting with prokaryotic membranes (Table 4).
Ten milliliters of fresh blood was mixed with 10 mL of PBS pH 7.20 in 50 mL conical tubes. Then, 10 mL of Ficoll® density gradient media were placed in 50 mL conical tubes, and then the blood/PBS solution was gently poured over without disturbing the interface. The mixture was centrifuged at RT and 400× g for 30 min with the brake off (Universal 32 R, Hettich Group, Kirchlengern, Westphalia, Germany), and the upper plasma phase was removed and discarded. The leukocyte phase was gently removed from the conical tube, placed in a new 50 mL conical tube, and density gradient media was removed in two washings with 25 mL of PBS pH 7.20 at RT and 400× g for 10 min. Cells were then resuspended in 3 mL of RPMI media. Subsequently, 10 µL of this suspension was mixed with 90 µL of Trypan blue in a 0.50 mL polypropylene vial. The cell count and cell viability were determined in a Neubauer counting chamber. Then, cells were suspended to 3 × 10^5 cells/mL, ensuring that cell viability remained above 98%. All peptides were diluted in RPMI media to final concentrations ranging between 1.56 and 200 µM. Subsequently, 20 µL of each peptide solution was added in triplicate into 96-well plates, along with 80 µL of fresh RPMI media. For negative and positive cytotoxicity controls, six wells received 20 µL of PBS and 30% v/v H2O2, respectively. Blank wells without cells were also included. Next, 100 µL of a cell suspension 3 × 10^5 cells/mL was added to each well, and the plates were incubated for 24 h at 37 °C in a 5% CO2 atmosphere (Heratherm, ThermoFisher Scientific, Waltham, MA, USA). After 24 h, plates were centrifuged at RT and 1000× g for 10 min (Sorvall Legend XFR, ThermoFisher Scientific, Waltham, MA, USA). Then, 180 µL of the supernatant was collected, and 28 µL of a 4 mg/mL sterile MTT solution was added. The plates were then incubated for 4 h at 37 °C in a 5% CO2 atmosphere (Heratherm, ThermoFisher Scientific, Waltham, MA, USA). After the second incubation, 130 µL of DMSO was added to each well and plates were agitated at 50 rpm. The solubilized formazan was then measured at 570 nm using a Multiskan SkyHigh spectrophotometer (ThermoFisher Scientific, Waltham, MA, USA). All peptides were evaluated in three independent assays and the viability percentages were calculated as follows: Viability %=1−AbsPEPTIDE−Median AbsBLANK/Median AbsH2O2−Median AbsBLANK×100

Ends that are not written are not given here.

For the substance WKKIKKFF-NH2 [PvAMP66], for the setting “hPBMCs in RPMI, 24 h 37 °C 5% CO2, MTT 570 nm, 1.56–200 µM, logistic regression, 95% CI in parentheses, ND = above evaluated range”, the “CC50 (Cytotoxic Concentration 50)” value is reported as 172.03 µM. Under “hPBMCs, highest concentration (200 µM), 24 h, MTT”, the decrease in viability entry is listed as “approximately 40%”. Moreover, the CC50/IC50 runs as follows: (selectivity index vs IC50 E. coli ATCC 25922) 4.49; (selectivity index vs IC50 K. pneumoniae ATCC BAA-1705) 3.78; (selectivity index vs IC50 MDR K. pneumoniae) 10.89; (selectivity index vs IC50 P. aeruginosa ATCC 9027) 13.58; (selectivity index vs IC50 S. aureus ATCC 29213) 6.24.
